{"source": "paper PMC9870775", "about": "“Potent Dual Polymerase/Exonuclease Inhibitory Activities of Antioxidant Aminothiadiazoles Against the COVID-19 Omicron Virus: A Promising In Silico/In Vitro Repositioning Research Study” (Molecular Biotechnology, 2023)", "test": "in vitro", "details": "African green monkey"}
{"smiles": "Nc1nnc(-c2cnc3cc(Cl)ccc3c2O)s1", "note": "[ChloViD2022, 3-(5-amino-1,3,4-thiadiazol-2-yl)-7-chloroquinolin-4-ol]", "values": [{"measurement": "CC50", "result": "> 100", "unit": "µM"}]}
{"smiles": "Nc1nnc(CC(O)(Cc2nnc(N)s2)c2nnc(N)s2)s1", "note": "[CoViTris2022, 1,2,3-tris(5-amino-1,3,4-thiadiazol-2-yl)propan-2-ol]", "values": [{"measurement": "CC50", "result": "> 100", "unit": "µM"}]}
{"smiles": "CC(C)C(=O)OC[C@H]1O[C@@H](n2ccc(NO)nc2=O)[C@H](O)[C@@H]1O", "note": "[Molnupiravir, molnupiravir, reference compound]", "values": [{"measurement": "CC50", "result": "> 100", "unit": "µM"}]}
{"smiles": "Nc1nnc([C@H](O)[C@@H](O)c2nnc(N)s2)s1", "note": "[Taroxaz-26, (1R,2R)-1,2-bis(5-amino-1,3,4-thiadiazol-2-yl)ethane-1,2-diol]", "values": [{"measurement": "CC50", "result": "> 100", "unit": "µM"}]}
